In patent publication US4575560A, “Insecticidal diaminoguanidine hydrazone compounds” (American Cyanamid Company, priority 1985, dated 1986):
Counter-ions that a name gives are not always drawn.

What was measured:
[1] = system: Southern Armyworm; test: Southern armyworm test, third-instar larvae on treated Sieva lima bean leaves; type: in vivo, Spodoptera eridania (Cramer); settings: for Mortality Rating Southern Armyworm: third-instar larvae
Protocol: Test formulations and procedures used for evaluation are as follows:
A. 100 mg of the test material is weighed, placed in a funnel over a 113 g narrow-mouth bottle, rinsed into the bottle with a 35 mL scoop of acetone, followed by a 35 mL scoop of water and another 35 mL scoop of acetone to yield 1000 ppm in 65% acetone. If the material is not soluble, it is broken up with a glass rod and used as a suspension.
B. This stock solution ("A") is used to make 300 ppm solutions or suspensions by pipetting 30 mL of "A" into a bottle containing 70 mL of 50% acetone to yield 300 ppm. Further dilutions in 50% acetone are made as required.
C. Tests requiring 10 ppm acetone solutions: 1 mL of "A" is pipetted into 99 mL of acetone to yield 10 ppm. Additional dilutions are made using 50% acetone as required.
Southern Armyworm--Spodoptera eridania (Cramer)
A Sieva lima bean plant with just the primary leaves expanded to 1.91 cm is dipped for three seconds with agitation in the "A" solution of 1000 ppm and set in the hood to dry. Following this, one leaf is placed in a 9 cm petri dish which has a moist filter paper in the bottom and 10 third-instar armyworm larvae about 1 cm long. This dish is covered and held at 80° F., and 50% r.h. After two days, mortality counts and estimates of the amount of feeding are made. Compounds showing partial kill and/or inhibition of feeding are held for an extra day for further observations.
All compounds showing activity as defined above are retested, using the second leaf on the bean plant, after an interval of seven days from original treatment, as an assay of residual activity.

[2] = system: Tobacco Budworm 3rd Instar; test: Tobacco budworm secondary test, third-instar larvae on treated cotton cotyledons; type: in vivo, Heliothis virescens (Fabricus)

SMILES | Mortality Rating Southern Armyworm ([1]; 10 ppm) | Mortality Rating Southern Armyworm ([1]; 100 ppm) | Mortality Rating Southern Armyworm ([1]; 1000 ppm) | Mortality Rating Tobacco Budworm 3rd Instar ([2]; 100 ppm) | reduced feeding (R) Tobacco Budworm 3rd Instar ([2]; 100 ppm) | Mortality Rating Tobacco Budworm 3rd Instar ([2]; 1000 ppm) | reduced feeding (R) Tobacco Budworm 3rd Instar ([2]; 1000 ppm) | Mortality Rating Tobacco Budworm 3rd Instar ([2]; 10 ppm) | reduced feeding (R) Tobacco Budworm 3rd Instar ([2]; 10 ppm) | reduced feeding (R) Southern Armyworm ([1]; 100 ppm) | reduced feeding (R) Southern Armyworm ([1]; 1000 ppm)
N=C(NN=Cc1ccc(OC(F)(F)F)cc1)N(N=Cc1ccc(OC(F)(F)F)cc1)C(=O)OCC(Cl)(Cl)Cl [CF3 O / CF3 O / Cl3 CCH2] | 9 (100%) | 9 (100%) | 9 (100%) | 1 (11-25%) | R | 0 (No effect) | R | – | – | – | –
N=C(NN=Cc1ccc(OC(F)(F)F)cc1)N(N=Cc1ccc(OC(F)(F)F)cc1)C(=O)OCCCl [CF3 O / CF3 O / ClCH2 CH2] | 5 (56-65%) | 9 (100%) | 9 (100%) | 0 (No effect) | R | 8 (86-99%) | R | 0 (No effect) | R | – | –
CCC(C)OC(=O)N(N=Cc1ccc(OC(F)(F)F)cc1)C(=N)NN=Cc1ccc(OC(F)(F)F)cc1 (centres unmarked) [CF3 O / CF3 O / drawing 55] | 0 (No effect) | 9 (100%) | 9 (100%) | 0 (No effect) | R | 8 (86-99%) | – | – | – | – | –
CCC(C)OC(=O)N(N=Cc1ccc(Cl)cc1)C(=N)NN=Cc1ccc(Cl)cc1 (centres unmarked) [Cl / Cl / drawing 56] | – | 0 (No effect) | 9 (100%) | 0 (No effect) | – | 0 (No effect) | R | – | – | – | –
N=C(NN=Cc1ccc(Cl)cc1)NN=Cc1ccc(OC(F)(F)C(F)F)cc1 [Cl / HCF2 CF2 O / B] | 0 (No effect) | 9 (100%) | 9 (100%) | 0 (No effect) | – | 0 (No effect) | R | – | – | – | –
N=C(NN=Cc1ccc(Cl)cc1)NN=Cc1ccc(Cl)cc1 [Cl / HCl] | 0 (No effect) | 0 (No effect) | – | – | – | 0 (No effect) | – | – | – | R | R
N=C(NN=Cc1ccc(Cl)cc1)NN=Cc1ccc(Cl)cc1 [Cl / HNO3] | – | 0 (No effect) | 9 (100%) | – | – | 0 (No effect) | – | – | – | – | –
CN(C)C(=O)N(N=Cc1ccc(F)cc1)C(=N)NN=Cc1ccc(F)cc1 [F / F / CH3 / CH3] | – | 0 (No effect) | 8 (86-99%) | – | – | 0 (No effect) | – | – | – | – | –
CC(C)OC(=O)N(N=Cc1ccc(OC(F)(F)C(Cl)Cl)cc1)C(=N)NN=Cc1ccc(OC(F)(F)C(Cl)Cl)cc1 [HCCL2 CF2 O / HCCl2 CF2 O / -i-C3 H7] | – | 0 (No effect) | 7 (76-85%) | 0 (No effect) | R | 0 (No effect) | R | – | – | – | –
N=C(NN=Cc1ccc(OC(F)(F)C(Cl)Cl)cc1)NN=Cc1ccc(OC(F)(F)C(Cl)Cl)cc1 [HCCL2 CF2 O / S] | 7 (76-85%) | 9 (100%) | 9 (100%) | 0 (No effect) | R | 5 (56-65%) | – | – | – | – | –
